Measurements from patent publication US8518944B2, “Compounds as casein kinase inhibitors” (Pfizer Inc., priority 2009, dated 2013).
Where a name gives a salt, the structure may show the parent alone.

Key:
CK1δ = CK1δ (Homo sapiens, UniProt P48730); assay: CK1δ kinase assay (Kinase-Glo luminescence); format: biochemical; conditions: ATP 10 μM, CK1δ enzyme 2 nM, peptide substrate 42 μM, 25° C., 85 minutes; values marked * are geometric mean of 5-16 determinations; read-out: CKIδ IC50 (nM), geometric mean of 2-4 determinations
CK1δ, sequence (P48730 whole entry): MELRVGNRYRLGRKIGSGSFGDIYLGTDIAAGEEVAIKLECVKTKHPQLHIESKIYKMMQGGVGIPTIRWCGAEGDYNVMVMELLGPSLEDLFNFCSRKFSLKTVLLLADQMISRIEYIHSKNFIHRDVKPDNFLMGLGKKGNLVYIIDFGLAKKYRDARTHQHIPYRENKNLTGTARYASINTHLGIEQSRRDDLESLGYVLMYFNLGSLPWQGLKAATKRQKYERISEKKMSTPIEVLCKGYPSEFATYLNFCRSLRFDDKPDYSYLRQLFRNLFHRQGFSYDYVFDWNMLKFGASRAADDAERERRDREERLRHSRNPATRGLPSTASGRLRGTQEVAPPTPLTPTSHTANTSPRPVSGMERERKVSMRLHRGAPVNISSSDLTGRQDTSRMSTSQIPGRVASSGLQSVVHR
Method: The CK1δ kinase assay was performed in a standard buffer containing ATP at 10 μM, CK1δ enzyme at 2 nM, and the peptide substrate PLSRTLpSVASLPGL at 42 μM. The reaction was incubated at 25° C. for 85 minutes. Enzyme inhibition was performed in the presence of either 1 μL of CK1δ inhibitor, or 4% DMSO. Detection of luminescent output on a PerkinElmer EnVision plate reader (PerkinElmer, Waltham, Mass.) was performed as described for the Kinase-Glo Assay (Promega).

CK1ε wild type enzyme = CK1ε wild type enzyme (Homo sapiens, UniProt P49674); assay: CK1ε kinase assay (Kinase-Glo luminescence); format: biochemical; conditions: ATP 10 μM, CK1ε wild type enzyme 2.5 nM, peptide substrate 42 μM, 25° C., 70 minutes; values marked * are geometric mean of 5-16 determinations; read-out: CKIε IC50 (nM), geometric mean of 2-4 determinations
CK1ε wild type enzyme, sequence (P49674 whole entry): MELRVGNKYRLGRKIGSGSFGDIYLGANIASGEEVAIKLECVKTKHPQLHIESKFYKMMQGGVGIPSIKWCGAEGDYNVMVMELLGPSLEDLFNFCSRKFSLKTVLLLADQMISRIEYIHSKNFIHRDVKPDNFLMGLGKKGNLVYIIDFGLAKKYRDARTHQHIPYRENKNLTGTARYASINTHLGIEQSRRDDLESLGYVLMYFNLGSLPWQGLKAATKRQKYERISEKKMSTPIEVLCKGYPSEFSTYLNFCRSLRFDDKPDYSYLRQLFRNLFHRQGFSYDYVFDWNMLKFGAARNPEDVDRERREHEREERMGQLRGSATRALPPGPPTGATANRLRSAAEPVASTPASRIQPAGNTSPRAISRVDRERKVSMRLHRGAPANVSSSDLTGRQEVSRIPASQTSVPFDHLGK
Method: The CK1ε kinase assay was performed in a standard buffer containing ATP at 10 μM, CK1ε wild type enzyme at 2.5 nM, and 42 μM concentration of the peptide substrate PLSRTLpSVASLPGL (Flotow et al., 1990). The reaction was incubated at 25° C. for 70 minutes. Enzyme inhibition was measured in the presence of 1 μL of the CK1ε inhibitor, or 4% DMSO. Detection was carried out as described for the Kinase-Glo Assay (Promega). Luminescent output was measured on the PerkinElmer EnVision plate reader (PerkinElmer, Waltham, Mass.).

Row | Compound | IC50 (CK1δ) [nM] | IC50 (CK1ε wild type enzyme) [nM]
1 | Fc1ccc(-c2ncn(C3CCN(Cc4cn5ccccc5n4)C3)c2-c2ccncn2)cc1 (stereo not drawn) [Example 39, 2-({3-[4-(4-fluoro-phenyl)-5-pyrimidin-4-yl-1H-imidazol-1-yl]pyrrolidin-1-yl}methyl)imidazo[1,2-a]pyridine, trifluoroacetate salt] | 211 | 644
2 | Fc1ccc(-c2ncn(C3CCN(Cc4cnc5ccnn5c4)C3)c2-c2ccncn2)cc1 (stereo not drawn) [Example 40, 6-({3-[4-(4-fluorophenyl)-5-pyrimidin-4-yl-1H-imidazol-1-yl]pyrrolidin-1-yl}methyl)pyrazolo[1,5-a]pyrimidine, trifluoroacetate salt] | 178 | 798
3 | Cc1c(CN2CCC(n3cnc(-c4ccc(F)cc4)c3-c3ccncn3)C2)nc2ccccn12 (stereo not drawn) [Example 41, 2-({3-[4-(4-fluorophenyl)-5-pyrimidin-4-yl-1H-imidazol-1-yl]pyrrolidin-1-yl}methyl)-3-methylimidazo[1,2-a]pyridine, trifluoroacetate salt] | 595 | 1990
4 | COCCc1ncc(CN2CCC(n3cnc(-c4ccc(F)cc4)c3-c3ccncn3)C2)cn1 (stereo not drawn) [Example 42, 5-({3-[4-(4-fluorophenyl)-5-pyrimidin-4-yl-1H-imidazol-1-yl]pyrrolidin-1-yl}methyl)-2-(2-methoxyethyl)pyrimidine, trifluoroacetate salt] | 679 | 1530

Continued, values first:

Row | IC50 (CK1δ) [nM] | IC50 (CK1ε wild type enzyme) [nM] | Compound
5 | 46.6 | 124 | Cc1cc(C)c(CN2CCC(n3cnc(-c4ccc(F)cc4)c3-c3ccnc(N)n3)C2)cn1 (stereo not drawn) [Example 37, 4-[1-{1-[(4,6-dimethylpyridin-3-yl)methyl]pyrrolidin-3-yl}-4-(4-fluorophenyl)-1H-imidazol-5-yl]pyrimidin-2-amine]
6 | 55.8 | 158 | Nc1nccc(-c2c(-c3ccc(F)cc3)ncn2C2CCN(Cc3ccnc4cccnc34)C2)n1 (stereo not drawn) [Example 38, 4-{4-{4-fluorophenyl)-1-[1-(1,5-naphthyridin-4-ylmethyl)pyrrolidin-3-yl]-1H-imidazol-5-yl}pyrimidin-2-amine]
